# From publication PMC10669474, “An Exploration of Small Molecules That Bind Human Single-Stranded DNA Binding Protein 1” (Biology, 2023)
# How the values were obtained:
# [1] = test system: E. coli SSB; set-up: method as in PMID 27609050; conditions: ssDNA interaction; cited from earlier work
# [2] = target: T1, hSSB1 (Homo sapiens, UniProt Q9BQ15); test: AlphaLISA competition dose-response binding assay; conditions: for binding to hSSB1 in the AlphaLISA: triplicate; for Kd: as restated in discussion, read-out: affinity to hSSB1 in AlphaLISA binding assays
# T1 construct: 6xHis (N); made in house; host or cells: E. coli BL21 (DE3*)
# Description: To analyse the binding of compounds to hSSB1 and design a screening assay, we used Perkin Elmer’s AlphaLISA technology. The full assay design is described in the Supplementary Information. The optimal assay conditions were determined with a series of titration matrices to be 0.5 nM hSSB1, 5 nM In3-PD-biotin, 1 nM anti-hSSB1 antibody, 10 μg/mL SA donor beads, and 5 μg/mL protein G acceptor beads in a 16 μL reaction volume. These were combined in a buffer containing 10 mM Tris (pH 7.5), 100 mM NaCl, 0.1% β-mercaptoethanol, and 0.01% IGEPAL. First, an 8 μL mix of hSSB1, anti-hSSB1 antibody, and acceptor beads was prepared, which was added to the compound of interest and incubated for 1 h. Second, an 8 μL aliquot of a solution containing In3-PD-biotin and SA donor beads was added to the well. This was incubated before imaging with an EnSight Multimode Plate Reader (PerkinElmer, Shelton, CT, USA) at 10, 60, and 120 min. The assay was designed in a competition format so that the Cheng–Prusoff equation was met and the IC50 approximated the Kd.
# Dose–response curves were obtained for hit compounds and compared with TDRL-551. The same AlphaLISA competition format was used to determine the IC50/Kd of compounds binding to hSSB1. Each compound was dissolved in DMSO before being dispensed into a white 384-well microplate (PerkinElmer, Shelton, CT, USA) using a FlexDrop iQ. […]
# 1.1.1 Design of the AlphaLISA screening assay
# To test whether the compounds bind to hSSB1 and to design an effective screening assay, we used AlphaLISA technology from Perkin Elmer. This technology involves binding a biotin-labelled control DNA oligonucleotide (btn-In3-PD) to a streptavidin-coated donor (SA-donor) bead. hSSB1 is bound to an anti-hSSB1 sheep antibody as described previously, which binds to Protein G-coated acceptor beads. When hSSB1 and btn-In3-PD bind, they bring the two beads close together, and with excitation at 680 nm by laser irradiation, the phthalocyanine in the donor bead excites ambient oxygen to a reactive form of O2. When this is within 200 nm of a europium-containing acceptor bead (during a binding event), the reactive oxygen is transferred to the thioxene derivative, producing light at 615 nm. Without the acceptor bead, oxygen returns to its ground state. This lends the assay to a competition-based format for high- […]
# A titration matrix is required to optimise assay conditions to develop an AlphaLISA assay that accurately acquires results and subsequently follows the Cheng-Prusoff equation to report IC50’s as a molecule Kd. […] This is determined by finding the hook point of signal, which indicates the highest signal before the bead is saturated, after which a decrease in signal is observed. […]
# [3] = target: T1, hSSB1; test: Electrophoretic mobility shift assay (EMSA), competition with Cy5-labelled ssDNA probe; assay type: binding; conditions: tested from 200 to 0.091 μM
# Description: These were performed in 10 μL reactions of 10 mM Tris (pH 7.5), 100 mM NaCl, 0.01% IGEPAL, and 1 mM DTT. Two 5 μL solutions were prepared. The first mix contained hSSB1 with the compound of interest, which were incubated together for 10 min before the addition of the probe molecule, Cy5-labelled In3-PS. The combined solution was incubated for 30 min at 37 °C, before loading dye was added and the samples were loaded into 10% polyacrylamide TBE gels. These gels were run for 1.5 h in a cold room at 80 V before being imaged using a ChemiDoc Imaging System (BioRad, Hercules, CA, USA) and quantified using ImageStudio Lite (Version 5.2) software.
# The optimal conditions for the EMSAs were established using a titration matrix of hSSB1 and Cy5-labelled In3-PD concentrations. Concentrations of hSSB1 from 1000 to 0.26 nM and Cy5-labelled In3-PD at 1 nM and 5 nM were tested. The final conditions were established as 15 nM hSSB1 and 1.5 nM Cy5-labelled In3-PS, where the In3-PS is 100% bound. The concentrations of the MS-ML compounds of Merck KGaA, Darmstadt, Germany, were tested from 100 to 0.046 μM, and the concentrations of the novel DAZLN compounds were tested from 200 to 0.091 μM.
# [4] = target: T1, hSSB1; test: AlphaLISA Mini Library screen; assay type: binding; conditions: for inhibition at 10 µM: triplicate
# Description: In parallel to the rational design of small-molecule inhibitors, we acquired access to the Open Innovation Mini Library of small compounds from Merck KGaA, Darmstadt, Germany. This library consisted of 80 compounds at 10 mM in DMSO that had been investigated against other targets, from receptor blockers to protein inhibitors. The goal of screening this library was to test various scaffolds for their affinity to hSSB1.
# Using a FlexDrop iQ, 16 nL of each compound was dispensed onto a white low-volume 384-well microplate (PerkinElmer, Shelton, CT, USA) in triplicate at an assay concentration of 10 μM. In3-PS was used as the positive control binding entity at a concentration of 1 μM. The AlphaLISA assay conditions are described in Section 2.4. The hit cut-off used was an average inhibition of 30% across the three repeats. The plate was read using an EnSight Multimode Plate Reader (PerkinElmer, Shelton, CT, USA) at 10, 60, and 120 min.
# [5] = test system: U2OS cells; test: CellTitre-Glo cytotoxicity assay; assay type: cell-based, human; conditions: 48 h incubation, 30—0.0492 μM, CTG
# Description: The osteosarcoma cell line U2OS was purchased from the American Type Culture Collection (ATCC) and seeded at a density of 500 cells/well in a 384-well plate. They were maintained at 37 °C in a humidified atmosphere containing 5% CO2 in Roswell Park Memorial Institute […] (RPMI) medium (ThermoFisher Scientific, Inc., Brisbane, Australia) supplemented with 10% (v/v) heat-inactivated foetal bovine serum (FBS) (ThermoFisher Scientific). A cytotoxicity assay was conducted to test the impact of the three Merck KGaA, Darmstadt, Germany, compounds (MS-ML24, MS-ML25, MS-ML26) on cell viability. Increasing concentrations of each MS-ML compound were added from […] in serial dilutions of 2.5 (n = 4). The cells were incubated with the compound for 48 h before the CellTitre-Glo (CTG) (Promega) assay was performed as per the manufacturer’s instructions. The plate was read on an EnSight Multimode Plate Reader (PerkinElmer, Shelton, CT, USA).
# T1 sequence (Q9BQ15 whole entry): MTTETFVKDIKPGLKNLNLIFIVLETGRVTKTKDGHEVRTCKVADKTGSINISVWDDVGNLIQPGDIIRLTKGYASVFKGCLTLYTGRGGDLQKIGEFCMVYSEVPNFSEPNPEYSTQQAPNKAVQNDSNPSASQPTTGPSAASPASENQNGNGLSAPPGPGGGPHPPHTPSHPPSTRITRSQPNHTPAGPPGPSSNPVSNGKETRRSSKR
structure (smiles),measurement,setting,value
O=c1cc2oc3cc(O)c(O)cc3c(-c3ccccc3O)c-2cc1O [9-hydroxyphenylfluoron],concentration at which 50% bound,[1],~ 25 μM
COc1ccc2cc([C@H]3CC(c4cn(C)c5cc(OC)ccc45)=NN3)ccc2c1 [DAZLN-51],binding to hSSB1 in the AlphaLISA,[2],no binding
same,binding to hSSB1 / inhibition in the EMSA,[3],no inhibition was observed
COc1ccc2cc([C@H]3CC(c4cn(C)c5cc(OC)ccc45)=NN3C(=O)CCCC(=O)NCC(=O)N3CCOCC3)ccc2c1 [DAZLN-56],binding to hSSB1 in the AlphaLISA,[2],low level of binding
same,binding to hSSB1 / inhibition in the EMSA,[3],not reflected in the EMSA
CCCCCCN(Cc1ccc(C#Cc2ccc(CCCC)cc2)cc1)c1ccc(O)c(C(=O)O)c1 [MS-ML24],Kd,[2],0.143 µM
same,inhibition at 10 µM,[4],> 45%
CCCCCCN(Cc1ccc(C#Cc2ccc(CCCC)cc2)cc1)C(=O)c1ccc(O)c(C(=O)O)c1 [MS-ML25],inhibition at 10 µM,[4],> 45%
CCCCCCN(Cc1ccc(C#Cc2ccc(CCCC)cc2)cc1)c1ccc(F)c(C(=O)O)c1 [MS-ML26],Kd,[2],0.198 µM
same,result in initial screen relative to hit threshold,"[4]; 10 μM, hit cut-off average inhibition of 30%",slightly lower than the threshold set for the screen
CCOc1ccc2cc(C3CC(c4ccc(I)cc4)=NN3C(=O)CCCC(=O)O)c(Cl)nc2c1 (stereo not drawn) [TDRL-551],cytotoxic effect in U2OS cells,[5],no cytotoxic effect
O=c1c(O)cccc2cc(O)c(O)c(O)c12 [purpurogallin],concentration at which 50% bound,[1],~ 25 μM
